How the values were obtained:
[1] = test system: HEK293 cells; test: Intracellular [Zn2+]free imaging with FluoZin-3-AM, HEK293 cells; type: cell-based; conditions: for increase of intracellular [Zn2+]free (FZ3-AM fluorescence): HEK293 (non-cancer, p53-WT), complete media, confocal microscopy
Procedure: (§1) To minimize the potential for Zn^2+ contamination and contributions from poorly defined elements in complete media (e.g. FBS), cells were treated and imaged in Ca^2+ and Mg^2+-free Earle's Balanced Salt Solution supplemented with 10 mM HEPES pH 7.4 (EBSS/H (−)Ca/Mg). Excess ZnCl2 with the Zn^2+ ionophore pyrithione (PYR) was used as a positive control. Excess membrane-permeable Zn^2+ chelator N,N,N′,N′-tetrakis(2-pyridylmethyl)ethane-1,2-diamine (TPEN) was used as a negative control.
To normalize for differential dye loading, cells were then sequentially treated with excess PYR/ZnCl2, imaged, treated with TPEN, and imaged again. PYR/ZnCl2 and TPEN served to saturate and apoize the intracellular FZ3, respectively.
TOV112D or HEK293 cells (40,000 cells/well) were plated on either 8-well BD Falcon chambered culture slides (Corning Life Sciences) or 8-chambered #1.5 Nunc Lab-Tek II chambered coverglasses (Thermo Scientific) treated with poly-L-lysine. After 48 h, cells were washed 2×5 m in serum-free media and incubated with 1 μM FZ3-AM for 40 m at 37° C. Cells were then washed 2×5 m in either EBSS/H (−)Ca/Mg or phenol-red free DMEM+10% FBS containing the indicated treatments for 20 m before imaging. For nuclear colocalization, 1 μg/mL Hoechst 33342 was also included. Cells were imaged using a Zeiss LSM50 META NLO confocal microscope equipped with 37° C. environmental control chamber. FZ3 and Hoechst 33342 were excited at 488 nm (argon laser) and 790 nm (Chameleon Ti:sapphire laser), respectively. To determine the kinetics of fluorescence change, each background-subtracted image in the time-lapse series was integrated in ImageJ and normalized to the integrated fluorescence of the first frame after treatment. For quantification of intracellular [Zn^2+]free, each cell was analyzed in the treated, 50 μM PYR/ZnCl2 (1:1), and 100 μM TPEN images by taking the mean fluorescence of an ROI inside the cell subtracted by an ROI immediately outside the cell measured in ImageJ. The [Zn^2+]free for each cell was then calculated by Eqn 2:
[formula] […] To minimize the effects of outliers the lowest and highest 5% of cells in each series were rejected, and the remaining values averaged to give the value from that experiment. The number of cells analyzed in each trial ranged from 54-163. For nuclear colocalization, treated, PYR/ZnCl2, and TPEN treated images costained with Hoechst 33342 were aligned and each pixel subjected to Eqn. 2 in MATLAB (MathWorks).

[2] = Liposome import assay (RZ-3 fluorescence); conditions: for Zn2+ shuttling into liposomes: external [Zn2+]free 10 μM
Procedure: However, in complete media containing 10% fetal bovine serum (FBS), Zn^2+-binding proteins from the serum (e.g. albumin) necessarily compete for Zn^2+ with any putative MC, making the effective [Zn^2+]free much lower than [Zn^2+]total.
(§2) DOPC-liposomes were prepared by film rehydration and extrusion followed by gel filtration and diluted to an OD600=0.06 in buffer. The size distribution of the liposomes was determined by dynamic light scattering (DLS) using a Malvern Zetasizer Nano ZS. Fluorescence measurements were taken on a Horiba Fluoromax-4 spectrofluorimeter in a 5×5 mm quartz cuvette with λex/λem=550/572 nm for RZ-3 and 490/515 nm for calcein. Initial Zn^2+ import/export was quantified by fitting the first 10-30 s of data after each treatment to a line and converted to units of flux using the following Eqn 1:
[formula] where Ji is the initial flux, ΔF/Δt is the slope of the fit line, Fmax is RZ-3 fluorescence in the presence of saturating Zn^2+ and 1% TritonX-100, Fmin is RZ-3 fluorescence in the presence of excess EDTA and 1% TritonX-100, [RZ3] is the concentration of encapsulated RZ-3, and SA/Vol is the surface area to volume ratio calculated assuming hollow spheres of the mean diameter determined by DLS. Intracellular [Zn^2+]free Imaging

[3] = test system: TOV112D cells; test: Intracellular [Zn2+]free imaging with FluoZin-3-AM, TOV112D cells; type: cell-based; conditions: ZMC1 alone without ZnCl2, EBSS/H (−)Ca/Mg
Procedure: as §1
To normalize for differential dye loading, cells were then sequentially treated with excess PYR/ZnCl2, imaged, treated with TPEN, and imaged again. […]
TOV112D or HEK293 cells (40,000 cells/well) were plated on either 8-well BD Falcon chambered culture slides (Corning Life Sciences) or 8-chambered #1.5 Nunc Lab-Tek II chambered coverglasses (Thermo Scientific) treated with poly-L-lysine. […] To determine the kinetics of fluorescence change, each background-subtracted image in the time-lapse series was integrated in ImageJ and normalized to the integrated fluorescence of the first frame after treatment. For quantification of intracellular [Zn^2+]free, each cell was analyzed in the treated, 50 μM PYR/ZnCl2 (1:1), and 100 μM TPEN images by taking the mean fluorescence of an ROI inside the cell subtracted by an ROI immediately outside the cell measured in ImageJ. […]

[4] = Liposomal leakage assay (calcein) and liposome size distribution
Procedure: To ensure that the fluorescence results were due to Zn^2+ transport and not to non-specific disruption of liposomal membranes, a liposomal leakage assay was performed using the self-quenching fluorophore calcein. When calcein is encapsulated at concentrations above 4 mM its fluorescence is decreased via self-quenching. Leakage is detected by a fluorescence increase as the dye dilutes and its fluorescence dequenches. […] Disruption of liposomes can also be detected by alteration of their size distribution.
as §2, with “1: […]” for “1:”

| Compound | increase of intracellular [Zn2+]free (FZ3-AM fluorescence) [1] | Zn2+ shuttling into liposomes [2] | ability to cross liposomal or cellular membranes [2] | increase in intracellular [Zn2+]free, ZMC1 alone ([1]; HEK293, ZMC1 alone without ZnCl2, EBSS/H (−)Ca/Mg) | increase in intracellular [Zn2+]free, ZMC1 alone [3] | RZ-3 fluorescence after reversing [Zn2+]free gradient with excess external EDTA ([2]; ZMC1 added after EDTA, export of Zn2+ from liposomes) | calcein fluorescence increase (liposome leakage) ([4]; highest concentrations of ZMC1 and ZnCl2) | size distribution of liposomes ([4]; highest concentrations of ZnCl2 and ZMC1) |
| --- | --- | --- | --- | --- | --- | --- | --- | --- |
| C/C(=N\NC(=O)N1CCC1)c1ccccn1 [Example A6] | did not | shuttled Zn^2+ into the liposomes | – | – | – | – | – | – |
| O=C(O)CN(CC(=O)O)CC(=O)O [NTA] | did not | did not | cannot cross either liposomal or cellular membranes | – | – | – | – | – |
| C/C(=N\NC(=S)N1CCC1)c1ccccn1 [ZMC1] | increased | – | can cross biological membranes both as free drug and drug-Zn^2+ complex | neither cell type showed an increase | neither cell type showed an increase | time dependent decrease | a significant fluorescence increase was not detected | identical to that of untreated liposomes |

Source: patent US10604480B2, “(Thio, oxo, and seleno) semicarbazone derivatives and their use for treating cancer” (RUTGERS, THE STATE UNIVERSITY OF NEW JERSEY, priority 2015, dated 2020)
